According to US20040171566A1, “Antisense modulation of p38 mitogen activated protein kinase expression” (priority 1999, published 2004):
e = 2'-O-(2-methoxyethyl) (MOE); d = 2'-deoxy (DNA)

Experiments:
rat p38α mRNA = assay: Rat p38α mRNA levels in NR-8383 cells, quantitative real-time PCR; assay type: cell-based; conditions: 300 nM oligonucleotide with FuGENE 6, 24 hours, mRNA by quantitative real-time PCR, average of two experiments
Description: (§1) Quantitation of p38α mRNA levels was accomplished by real-time quantitative PCR using the ABI PRISM™ 7600, 7700, or 7900 Sequence Detection System (PE-Applied Biosystems, Foster City, Calif.) according to manufacturer's instructions. This is a closed-tube, non-gel-based, fluorescence detection system which allows high-throughput quantitation of polymerase chain reaction (PCR) products in real-time. As opposed to standard PCR in which amplification products are quantitated after the PCR is completed, products in real-time quantitative PCR are quantitated as they accumulate. This is accomplished by including in the PCR reaction an oligonucleotide probe that anneals specifically between the forward and reverse PCR primers, and contains two fluorescent dyes. A reporter dye (e.g., FAM or JOE, obtained from either PE-Applied Biosystems, Foster City, Calif., Operon Technologies Inc., Alameda, Calif. or Integrated DNA Technologies Inc., Coralville, Iowa) is attached to the 5′ end of the probe and a quencher dye (e.g., TAMRA, obtained from either PE-Applied Biosystems, Foster City, Calif., Operon Technologies Inc., Alameda, Calif. or Integrated DNA Technologies Inc., Coralville, Iowa) is attached to the 3′ end of the probe. When the probe and dyes are intact, reporter dye emission is quenched by the proximity of the 3′ quencher dye. During amplification, annealing of the probe to the target sequence creates a substrate that can be cleaved by the 5′-exonuclease activity of Taq polymerase. […] With each cycle, additional reporter dye molecules are cleaved from their respective probes, and the fluorescence intensity is monitored at regular intervals by laser optics built into the ABI PRISM™ Sequence Detection System. In each assay, a series of parallel reactions containing serial dilutions of mRNA from untreated control samples generates a standard curve that is used to quantitate the percent inhibition after antisense oligonucleotide treatment of test samples.
(§2) Prior to quantitative PCR analysis, primer-probe sets specific to the target gene being measured are evaluated for their ability to be “multiplexed” with a GAPDH amplification reaction. In multiplexing, both the target gene and the internal standard gene GAPDH are amplified concurrently in a single sample. In this analysis, mRNA isolated from untreated cells is serially diluted. Each dilution is amplified in the presence of primer-probe sets specific for GAPDH only, target gene only (“single-plexing”), or both (multiplexing). Following PCR amplification, standard curves of GAPDH and target mRNA signal as a function of dilution are generated from both the single-plexed and multiplexed samples. If both the slope and correlation coefficient of the GAPDH and target signals generated from the multiplexed samples fall within 10% of their corresponding values generated from the single-plexed samples, the primer-probe set specific for that target is deemed multiplexable. Other methods of PCR are also known in the art.
(§3) PCR reagents were obtained from Invitrogen Corporation, (Carlsbad, Calif.). […] The RT reaction was carried out by incubation for 30 minutes at 48° C. Following a 10 minute incubation at 95° C. to activate the PLATINUM® Taq, 40 cycles of a two-step PCR protocol were carried out: 95° C. for 15 seconds (denaturation) followed by 60° C. for 1.5 minutes (annealing/extension).
(§4) Gene target quantities obtained by real time RT-PCR are normalized using either the expression level of GAPDH, a gene whose expression is constant, or by quantifying total RNA using RiboGreen™ (Molecular Probes, Inc. Eugene, Oreg.). GAPDH expression is quantified by real time RT-PCR, by being run simultaneously with the target, multiplexing, or separately. Total RNA is quantified using RiboGreen™ RNA quantification reagent (Molecular Probes, Inc. Eugene, Oreg.). Methods of RNA quantification by RiboGreen™ are taught in Jones, L. J., et al, (Analytical Biochemistry, 1998, 265, 368-374). […]

mouse p38α mRNA = assay: Mouse p38α mRNA levels in bEND.3 cells, quantitative real-time PCR; assay type: cell-based; set-up: % Inhib. mouse p38α: concentration or dose not given beside the values; conditions: bEND.3 cells, mRNA by quantitative real-time PCR, average of two experiments
Description: as §1, §2, §3, §4

| Substance | % Inhib. rat p38α (rat p38α mRNA) [%] | % Inhib. mouse p38α (mouse p38α mRNA) [%] |
| --- | --- | --- |
| 320137 (antisense CACACACATCCCTAAGGAGA; sugars from the 5' end e5 d10 e5, all phosphorothioate, methylation of C not given here) [compound 320137] | 44 | 80 |
| 320155 (antisense CCCTGAGGATTCATGTTTAT; sugars from the 5' end e5 d10 e5, all phosphorothioate, methylation of C not given here) [compound 320155] | 73 | 93 |
| 320112 (antisense CGTTCTTCCGGTCAACAGCT; sugars from the 5' end e5 d10 e5, all phosphorothioate, methylation of C not given here) [compound 320112] | 58 | 93 |
| 320115 (antisense GGGTTCCAACGAGTCTTAAA; sugars from the 5' end e5 d10 e5, all phosphorothioate, methylation of C not given here) [compound 320115] | 53 | 67 |
| 320128 (antisense TCAAAGGACTGGTCATAAGG; sugars from the 5' end e5 d10 e5, all phosphorothioate, methylation of C not given here) [compound 320128] | 37 | 79 |
| 320173 (antisense TCCCACAGGCAGCGGCCGGG; sugars from the 5' end e5 d10 e5, all phosphorothioate, methylation of C not given here) [compound 320173] | 250 | 160 |
| 320110 (antisense TCATCAGTGTGCCGAGCCAG; sugars from the 5' end e5 d10 e5, all phosphorothioate, methylation of C not given here) [compound 320110] | 54 | 87 |
| 320171 (antisense TGGAAAACTGTTTTGTCAAA; sugars from the 5' end e5 d10 e5, all phosphorothioate, methylation of C not given here) [compound 320171] | 2 | 35 |
| 320170 (antisense TGCTGGCTATACACAGACAC; sugars from the 5' end e5 d10 e5, all phosphorothioate, methylation of C not given here) [compound 320170] | 55 | 83 |
| 320147 (antisense AGAGCACAGCATGCAAACAC; sugars from the 5' end e5 d10 e5, all phosphorothioate, methylation of C not given here) [compound 320147] | 43 | 66 |
| 320140 (antisense GGGATAGCCTCAGACCTGAA; sugars from the 5' end e5 d10 e5, all phosphorothioate, methylation of C not given here) [compound 320140] | 37 | 61 |
| 320106 (antisense AACGGTCTCGACAGCTTCTT; sugars from the 5' end e5 d10 e5, all phosphorothioate, methylation of C not given here) [compound 320106] | 67 | 91 |
| 320105 (antisense CCCGTCTTTGTATCAAAAGC; sugars from the 5' end e5 d10 e5, all phosphorothioate, methylation of C not given here) [compound 320105] | 59 | 89 |
| 320160 (antisense GTTAATATGGTCTGTACCAG; sugars from the 5' end e5 d10 e5, all phosphorothioate, methylation of C not given here) [compound 320160] | 43 | 53 |
| 320132 (antisense TATTTGGAGAGTTCCCATGA; sugars from the 5' end e5 d10 e5, all phosphorothioate, methylation of C not given here) [compound 320132] | 56 | 85 |
| 320158 (antisense CCTTCTGGGCTCCAAATGAT; sugars from the 5' end e5 d10 e5, all phosphorothioate, methylation of C not given here) [compound 320158] | 71 | 91 |
| 320141 (antisense GCATGGCTGAGGGATAGCCT; sugars from the 5' end e5 d10 e5, all phosphorothioate, methylation of C not given here) [compound 320141] | 73 | 83 |
| 320139 (antisense GCAGCCTCTCTCTGTCACTG; sugars from the 5' end e5 d10 e5, all phosphorothioate, methylation of C not given here) [compound 320139] | 61 | 87 |
| 320153 (antisense AATATTAAAATAATTTGCCC; sugars from the 5' end e5 d10 e5, all phosphorothioate, methylation of C not given here) [compound 320153] | 22 | 0 |
| 320169 (antisense TTTGTTCTCACCTCATGGCT; sugars from the 5' end e5 d10 e5, all phosphorothioate, methylation of C not given here) [compound 320169] | 64 | 92 |
| 320125 (antisense GCTGCTGTGATCCTCTTATC; sugars from the 5' end e5 d10 e5, all phosphorothioate, methylation of C not given here) [compound 320125] | 63 | 67 |
| 320159 (antisense TCTGACATCCTATGGCATAC; sugars from the 5' end e5 d10 e5, all phosphorothioate, methylation of C not given here) [compound 320159] | 69 | 94 |
| 320168 (antisense TCACCTCATGGCTTGGCATC; sugars from the 5' end e5 d10 e5, all phosphorothioate, methylation of C not given here) [compound 320168] | 56 | 83 |
| 320172 (antisense ACTCTCGCGAGAACAGCTCC; sugars from the 5' end e5 d10 e5, all phosphorothioate, methylation of C not given here) [compound 320172] | 0 | 39 |
| 320122 (antisense ATTTGCGAAGTTCATCTTCG; sugars from the 5' end e5 d10 e5, all phosphorothioate, methylation of C not given here) [compound 320122] | 48 | 73 |
| 320145 (antisense GACCTCTGCACTGAGGTGAA; sugars from the 5' end e5 d10 e5, all phosphorothioate, methylation of C not given here) [compound 320145] | 44 | 52 |
